In US7767659B2, “Synthesis of naturally occurring ecteinascidins and related compounds” (Pharma Mar, S.A., priority 2002, dated 2010):
Where two headings read alike, the source gives them in different places.

Columns and labels:
LoVo = assay: cells; settings: Homo sapiens, LoVo, 48 h
Summary of the method: (§1)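 Colorimetric SRB read (490 nm) on triplicate wells after 48 h at 37 °C, 5% CO2. Dose range 10 to 10^−8 μg/ml; 5×10^3 cells/well pre-attached 18 h.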

HT-29 = assay: cells; settings: Homo sapiens, HT-29, 48 h
Summary of the method: as §1

A-549 = assay: cells; settings: Homo sapiens, A549, 48 h
Summary of the method: as §1

IGROV-ET = assay: Inhibition of cells growth by colorimetric assay (SRB); settings: Homo sapiens, 48 h
Protocol: (§2) This form of the assay employs 96 well cell culture microplates of 9 mm diameter (Faircloth, 1988; Mosmann, 1983). Most of the cell lines are obtained from American Type Culture Collection (ATCC) derived from different human cancer types.
(§3) Cells are maintained in RPMI 1640 10% FBS, supplemented with 0.1 g/l penicillin and 0.1 g/l streptomycin sulfate and then incubated at 37° C., 5% CO2 and 98% humidity. For the experiments, cells were harvested from subconfluent cultures using trypsin and resuspended in fresh medium before plating.
(§4) Cells are seeded in 96 well microtiter plates, at 5×10^3 cells per well in aliquots of 195 μl medium, and they are allowed to attach to the plate surface by growing in drug free medium for 18 hours. Afterward, samples are added in aliquots of 5 μl in a ranging from 10 to 10^−8 μg/ml, dissolved in DMSO/EtOH/PBS (0.5:0.5:99). After 48 hours exposure, the antitumor effect are measured by the SRB methodology: cells are fixed by adding 50 μl of cold 50% (wt/vol) trichloroacetic acid (TCA) and incubating for 60 minutes at 4° C. Plates are washed with deionized water and dried. One hundred μl of SRB solution (0.4% wt/vol in 1% acetic acid) is added to each microtiter well and incubated for 10 minutes at room temperature. Unbound SRB is removed by washing with 1% acetic acid. Plates are air dried and bound stain is solubilzed with Tris buffer. Optical densities are read on a automated spectrophotometric plate reader at a single wavelength of 490 nm.
(§5) The values for mean +/− SD of data from triplicate wells are calculated. Some parameters for cellular responses can be calculated: GI=growth inhibition, TGI=total growth inhibition (cytostatic effect) and LC=cell killing (cytotoxic effect).

IGROV-1 = assay: as above; settings: Homo sapiens, IGROV-1, 48 h
Protocol: as §2, §3, §4, §5

SK-MEL-28 = assay: as above; settings: Homo sapiens, SK-MEL-28, 48 h
Protocol: as §2, §3, §4, §5

PANC-1 = assay: as above; settings: Homo sapiens, PANC-1, 48 h
Protocol: as §2, §3, §4, §5

SK-BR-3 = assay: as above; settings: Homo sapiens, SK-BR-3, 48 h
Protocol: as §2, §3, §4, §5

HeLa-APL = assay: as above; settings: Homo sapiens, 48 h
Protocol: as §2, §3, §4, §5

LoVo-Dox = assay: as above; settings: Homo sapiens, 48 h
Protocol: as §2, §3, §4, §5

DU-145 = assay: as above; settings: Homo sapiens, DU-145, 48 h
Protocol: as §2, §3, §4, §5

HeLa = assay: as above; settings: Homo sapiens, HeLa, 48 h
Protocol: as §2, §3, §4, §5

LNCaP = assay: as above; settings: Homo sapiens, LNCaP, 48 h
Protocol: as §2, §3, §4, §5

K-562 = assay: as above; settings: Homo sapiens, K562, 48 h
Protocol: as §2, §3, §4, §5

## COc1c(C)cc2c(c1OC(=O)/C=C/c1ccccc1)[C@H]1N[C@@H](C2)[C@H](O)N2C1[C@@H]1SCC(NC(=O)C(F)(F)F)C(=O)OC[C@H]2c2c3c(c(C)c(OC(C)=O)c21)OCO3 (stereo partly drawn) [compound 40]
LoVo; read-out: LOVO GI50
  GI50: 0.213 µM
LoVo; read-out: LOVO LC50
  CC50: 1.68 µM
LoVo; read-out: LOVO TGI
  IC (TGI): 0.552 µM
HT-29; read-out: HT29 GI50
  GI50: 0.337 µM
HT-29; read-out: HT29 LC50
  CC50: 3.84 µM
HT-29; read-out: HT29 TGI
  IC (TGI): 1.05 µM
A-549; read-out: A549 GI50
  GI50: 0.195 µM
A-549; read-out: A549 LC50
  CC50: 1.03 µM
A-549; read-out: A549 TGI
  IC (TGI): 0.447 µM
IGROV-ET; read-out: IGROV-ET GI50
  GI50: 0.289 µM
IGROV-ET; read-out: IGROV-ET LC50
  CC50: 0.98 µM
IGROV-ET; read-out: IGROV-ET TGI
  IC (TGI): 0.533 µM
IGROV-1; read-out: IGROV GI50
  GI50: 0.0913 µM
IGROV-1; read-out: IGROV LC50
  CC50: 1.28 µM
IGROV-1; read-out: IGROV TGI
  IC (TGI): 0.317 µM
SK-MEL-28; read-out: MEL-28 GI50
  GI50: 0.162 µM
SK-MEL-28; read-out: MEL-28 LC50
  CC50: 0.688 µM
SK-MEL-28; read-out: MEL-28 TGI
  IC (TGI): 0.334 µM
PANC-1; read-out: PANC-1 GI50
  GI50: 0.321 µM
PANC-1; read-out: PANC-1 LC50
  CC50: 2.57 µM
PANC-1; read-out: PANC-1 TGI
  IC (TGI): 0.747 µM
SK-BR-3; read-out: SK-BR3 GI50
  GI50: 0.0426 µM
SK-BR-3; read-out: SK-BR3 LC50
  CC50: 0.524 µM
SK-BR-3; read-out: SK-BR3 TGI
  IC (TGI): 0.0976 µM
HeLa-APL; read-out: HELA-APL GI50
  GI50: 0.153 µM
HeLa-APL; read-out: HELA-APL LC50
  CC50: 0.775 µM
HeLa-APL; read-out: HELA-APL TGI
  IC (TGI): 0.344 µM
LoVo-Dox; read-out: LOVO-DOX GI50
  GI50: 0.354 µM
LoVo-Dox; read-out: LOVO-DOX LC50
  CC50: 2.79 µM
LoVo-Dox; read-out: LOVO-DOX TGI
  IC (TGI): 0.81 µM
DU-145; read-out: DU145 GI50
  GI50: 5.63 µM
DU-145; read-out: DU145 LC50
  CC50: 1.63 µM
DU-145; read-out: DU145 TGI
  IC (TGI): 0.16 µM
HeLa; read-out: HELA GI50
  GI50: 0.111 µM
HeLa; read-out: HELA LC50
  CC50: 0.661 µM
HeLa; read-out: HELA TGI
  IC (TGI): 0.276 µM
LNCaP; read-out: LNCAP GI50
  GI50: 0.0481 µM
LNCaP; read-out: LNCAP LC50
  CC50: 0.509 µM
LNCaP; read-out: LNCAP TGI
  IC (TGI): 0.162 µM
K-562; read-out: K562 GI50
  GI50: 0.0414 µM
K-562; read-out: K562 LC50
  CC50: 0.776 µM
K-562; read-out: K562 TGI
  IC (TGI): 0.131 µM

## C=CCOc1c(C)c2c(c3c1CC1[C@H]4c5c(cc(C)c(OC)c5O)C[C@@H]([C@H](C#N)N1[C@H]3CN)N4C)OCO2 (stereo partly drawn) [compound 1]
LoVo; read-out: GI50 LOVO
  GI50: 0.932 µM
LoVo; read-out: LC50 LOVO
  CC50: 19.2 µM
LoVo; read-out: TGI LOVO
  IC (TGI): 4 µM
HT-29; read-out: GI50 HT29
  GI50: 1.11 µM
HT-29; read-out: LC50 HT29
  CC50: 19.2 µM
HT-29; read-out: TGI HT29
  IC (TGI): 19.2 µM
A-549; read-out: GI50 A549
  GI50: 1.53 µM
A-549; read-out: LC50 A549
  CC50: 19.2 µM
A-549; read-out: TGI A549
  IC (TGI): 6.07 µM
IGROV-ET; read-out: GI50 IGROV-ET
  GI50: 0.97 µM
IGROV-ET; read-out: LC50 IGROV-ET
  CC50: 19.2 µM
IGROV-ET; read-out: TGI IGROV-ET
  IC (TGI): 19.2 µM
IGROV-1; read-out: GI50 IGROV
  GI50: 0.901 µM
IGROV-1; read-out: LC50 IGROV
  CC50: 19.2 µM
IGROV-1; read-out: TGI IGROV
  IC (TGI): 2.59 µM
SK-MEL-28; read-out: GI50 MEL-28
  GI50: 0.561 µM
SK-MEL-28; read-out: LC50 MEL-28
  CC50: 6.07 µM
SK-MEL-28; read-out: TGI MEL-28
  IC (TGI): 1.15 µM
PANC-1; read-out: GI50 PANC-1
  GI50: 0.887 µM
PANC-1; read-out: LC50 PANC-1
  CC50: 19.2 µM
PANC-1; read-out: TGI PANC-1
  IC (TGI): 4.36 µM
SK-BR-3; read-out: GI50 SK-BR3
  GI50: 1.01 µM
SK-BR-3; read-out: LC50 SK-BR3
  CC50: 19.2 µM
SK-BR-3; read-out: TGI SK-BR3
  IC (TGI): 3.96 µM
HeLa-APL; read-out: GI50 HELA-APL
  GI50: 0.717 µM
HeLa-APL; read-out: LC50 HELA-APL
  CC50: 7.51 µM
HeLa-APL; read-out: TGI HELA-APL
  IC (TGI): 1.63 µM
LoVo-Dox; read-out: GI50 LOVO-DOX
  GI50: 6.17 µM
LoVo-Dox; read-out: LC50 LOVO-DOX
  CC50: 19.2 µM
LoVo-Dox; read-out: TGI LOVO-DOX
  IC (TGI): 19.2 µM
DU-145; read-out: GI50 DU145
  GI50: 0.567 µM
DU-145; read-out: LC50 DU145
  CC50: 1.92 µM
DU-145; read-out: TGI DU145
  IC (TGI): 1.07 µM
HeLa; read-out: GI50 HELA
  GI50: 1.08 µM
HeLa; read-out: LC50 HELA
  CC50: 18.1 µM
HeLa; read-out: TGI HELA
  IC (TGI): 2.84 µM
LNCaP; read-out: GI50 LNCAP
  GI50: 0.434 µM
LNCaP; read-out: LC50 LNCAP
  CC50: 1.29 µM
LNCaP; read-out: TGI LNCAP
  IC (TGI): 0.747 µM
K-562; read-out: GI50 K562
  GI50: 0.361 µM
K-562; read-out: LC50 K562
  CC50: 1.77 µM
K-562; read-out: TGI K562
  IC (TGI): 0.799 µM
